What all share (test): NCI tumour cell line growth inhibition, 48 h
In assay [1] the test system is ACHN.
Assay [2] has as its system EKVX.
For assay [3], the system named is HL-60.
The subject of assay [4] is K562.
Assay [5] has as its system KM12.
Assay [6] relates to M14.
For assay [7], the system named is Malme-3M.
Assay [8] concerns NCI-H23.
Assay [9] concerns OVCAR-3.
In assay [10] the test system is OVCAR-4.
In assay [11] the test system is OVCAR-8.
In assay [12] the test system is RXF 393.
Assay [13] concerns SF-268.
The subject of assay [14] is SK-MEL-2.
Assay [15] has as its system SN12C.
For assay [16], the system named is SNB-19.
Assay [17] concerns SW-620.
The subject of assay [18] is A498.

“And” between values parts separate entries of the source, which are not always exact repeats. Identical values can stand only once.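 Five concentrations, 48 hours, 96-well plates. The concentration for 50% growth inhibition is given as GI50.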 The source made the active and inactive calls. No stated cut-off is given here; in the data, active = GI50 up to about 1.1 µM and inactive = higher.

For `Cc1ccc(C(=O)O/N=C2/CCCC/C2=C\c2ccccc2)cc1`, the GI50 is 27.2 µM (inactive) in assay [1]; > 100 µM (inactive) in assay [2]; 19.7 µM (inactive) in [3]; 19.2 µM (inactive) in assay [4]; 73.6 µM (inactive) in assay [5]; > 100 µM (inactive) in assay [6]. Moreover, the GI50 in assay [7] was 14.4 µM (inactive); in assay [8], 29.4 µM (inactive); in assay [9] it was 38.1 µM (inactive); in [10], 36.9 µM (inactive); in [11], 37.2 µM (inactive); in [12] it was 38.6 µM (inactive). Also, the GI50 in assay [13] is 13.2 µM (inactive); in [14] it was > 100 µM (inactive); in assay [15], 80.9 µM (inactive); in assay [16] it was > 100 µM (inactive); in assay [17], 34 µM (inactive).

As for `Cc1cc(C)c(-n2c(-c3ccccc3)cs/c2=N\N=C2C=C(C(C)(C)C)C(=O)C(C(C)(C)C)=C2)c(C)c1`, the GI50 is 90.2 µM (inactive) in [1]; 91.4 µM (inactive) in [2]; 50.5 µM (inactive) in assay [3]; 55.8 µM (inactive) in [4]; > 100 µM (inactive) in assay [5]; > 100 µM (inactive) in assay [6]. Also, the GI50 was > 100 µM (inactive) in assay [7]; 60.5 µM (inactive) in [8]; > 100 µM (inactive) in assay [9]; > 100 µM (inactive) in assay [10]; > 100 µM (inactive) in [11]; > 100 µM (inactive) in [12]. For the same molecule, the GI50 in [13], in assay [14], in assay [15], in assay [16] and in assay [17] was > 100 µM (inactive) throughout.

With `CC(C)C(=O)/C=C/c1ccc(Cl)c(Cl)c1`, the GI50 in [18] is 24.8 µM (inactive); in assay [1], 18.5 µM (inactive); in assay [2], 23.4 µM (inactive); in assay [3], 15 µM (inactive); in [4] it was 6.18 µM (inactive); in assay [5] it was 14.8 µM (inactive). In addition, the GI50 in assay [6] is 17.5 µM (inactive); in [8], 18.3 µM (inactive); in assay [9], 14.5 µM (inactive); in assay [10], 34.9 µM (inactive); in assay [11], 18.9 µM (inactive); in assay [12], 16.7 µM (inactive). In addition, the GI50 is 19.2 µM (inactive) in [13]; 17.5 µM (inactive) in assay [14]; 15 µM (inactive) in assay [15]; 15.1 µM (inactive) in [16]; 15.6 µM (inactive) in assay [17].

As for `CC(SC(=S)N1CCOCC1)c1cc2oc(=O)n(C)c2cc1Cl` (stereo not drawn), the GI50 in assay [1] was > 100 µM (inactive); in assay [2] it was > 100 µM (inactive); in assay [3], 39.4 µM (inactive); in assay [4] it was 33.3 µM (inactive); in assay [5] it was > 100 µM (inactive); in assay [6], > 100 µM (inactive). Moreover, the GI50 in [7], in assay [8], in assay [9], in [10], in assay [11] and in [12] was > 100 µM (inactive) in each case. In addition, the GI50 was > 100 µM (inactive) in [13]; > 100 µM (inactive) in [14]; > 100 µM (inactive) in assay [15]; > 100 µM (inactive) in assay [16]; > 10 µM (inactive) in assay [17].

On to `Cc1cc(C)c([O-])c(-[n+]2c(-c3ccccc3)cc(-c3ccccc3)cc2-c2ccccc2)c1`, for which the GI50 in [1] was 5.13 µM (inactive); in assay [2], 8.07 µM (inactive); in assay [3], 1.62 µM (inactive); in assay [4] it was 3.21 µM (inactive); in assay [5], 3.21 µM (inactive); in assay [6], 5.57 µM (inactive). The GI50 in [7] was 4.28 µM (inactive); in assay [8] it was 3.53 µM (inactive); in [9] it was 3.67 µM (inactive); in assay [10] it was 4.28 µM (inactive); in [11], 4.33 µM (inactive); in assay [12] it was 6.73 µM (inactive). Moreover, the GI50 is 7.82 µM (inactive) in assay [13]; 2.88 µM (inactive) in assay [14]; 5.09 µM (inactive) in [15]; 8.89 µM (inactive) in assay [16]; 4.1 µM (inactive) in assay [17].

As for `COc1ccc2nc(NC(=O)C(=O)CC(=O)c3ccc([N+](=O)[O-])cc3)sc2c1`, the GI50 in assay [18], in assay [1], in assay [2], in [4], in [5] and in assay [6] was > 100 µM (inactive) each time. Further, the GI50 in [7], in assay [8], in assay [9], in [10], in assay [11] and in assay [13] was > 100 µM (inactive) each time. Besides, the GI50 in assay [14], in assay [15], in assay [16] and in assay [17] was > 100 µM (inactive) each time.

In the case of `Cc1cc(C)c(C(=O)C(C)C(c2ccccc2)c2ccc(Cl)cc2)c(C)c1` (stereo not drawn), the GI50 was > 100 µM (inactive) and 91.8 µM (inactive) in assay [1]; > 100 µM (inactive) in assay [2]; 50.5 µM (inactive) and 48.8 µM (inactive) in assay [4]; > 100 µM (inactive) and 96.4 µM (inactive) in assay [5]; 82.8 µM (inactive) and 75.7 µM (inactive) in assay [6]; > 100 µM (inactive) and 60.7 µM (inactive) in [8]. Besides, the GI50 in assay [9] was > 100 µM (inactive); in [10] it was 49.4 µM (inactive) and 67.6 µM (inactive); in assay [11] it was > 100 µM (inactive); in assay [12], > 100 µM (inactive) and 77.6 µM (inactive); in [13], > 100 µM (inactive); in [15] it was > 100 µM (inactive). Moreover, the GI50 in assay [17] is > 100 µM (inactive).

On to `CCCN(CCC)c1c([N+](=O)[O-])cc(C(=O)N(CCO)CCO)cc1[N+](=O)[O-]`, for which the GI50 is > 100 µM (inactive) in [1]; 57.4 µM (inactive) in assay [2]; > 100 µM (inactive) in assay [3]; 61.4 µM (inactive) in assay [4]; > 100 µM (inactive) in assay [5]; > 100 µM (inactive) in assay [6]. Further, the GI50 in [7], in assay [8], in assay [9], in [10], in assay [11] and in [13] was > 100 µM (inactive) throughout. Moreover, the GI50 in [14] and in assay [15] was > 100 µM (inactive) in each case.

Consider `CCOC(=O)c1ccc(/N=C/c2ccc(N(CCC#N)S(=O)(=O)c3ccccc3)cc2C)cc1`, for which the GI50 was > 100 µM (inactive) in assay [18]; 52.8 µM (inactive) in assay [2]; 19.4 µM (inactive) in assay [3]; 9.79 µM (inactive) in [4]; 18.7 µM (inactive) in assay [5]; 25.4 µM (inactive) in assay [6]. The GI50 is 53.8 µM (inactive) in assay [7]; > 100 µM (inactive) in assay [8]; 54.7 µM (inactive) in assay [9]; 39.4 µM (inactive) in [10]; > 100 µM (inactive) in assay [11]; 26.1 µM (inactive) in assay [13]. Moreover, the GI50 was 33.5 µM (inactive) in [14], 75.7 µM (inactive) in assay [15], > 100 µM (inactive) in assay [16] and 76.6 µM (inactive) in assay [17].

Turning to `O=C(CC(=O)n1nc(-c2ccccc2)c(/N=N/c2ccc([N+](=O)[O-])cc2)c1-c1ccccc1)Nc1ccc(Cl)cc1`, the GI50 in [1] is 2.07 µM (inactive); in assay [2] it was 26.7 µM (inactive); in assay [3], 17 µM (inactive); in assay [4], 4.19 µM (inactive); in assay [5] it was 12 µM (inactive); in assay [6], 13.5 µM (inactive). For the same molecule, the GI50 in assay [7] is 19 µM (inactive); in [8], 27.2 µM (inactive); in assay [9], 16 µM (inactive); in assay [10], 34.2 µM (inactive); in [11], 35.8 µM (inactive); in [12], 19.5 µM (inactive). Further, the GI50 in assay [13] was 13.5 µM (inactive); in assay [14], 34.8 µM (inactive); in assay [15], 42.1 µM (inactive); in [16], 26.4 µM (inactive); in [17] it was 21.6 µM (inactive).

`Cc1c2cc[n+](C)cc2c(C)c2c1[nH]c1ccc(O)c(OCC(F)(F)F)c12`: the GI50 in [18] is 10.8 µM (inactive); in [2], 2.68 µM (inactive); in assay [3] it was 2.5 µM (inactive); in assay [4], 2.39 µM (inactive); in assay [6] it was 6.22 µM (inactive); in [7] it was 1.63 µM (inactive). The GI50 in assay [8] was 0.984 µM (active); in assay [9] it was 0.895 µM (active); in assay [10], 1.26 µM (inactive); in assay [11] it was 1.85 µM (inactive); in [13] it was 0.164 µM (active); in assay [14], 4.63 µM (inactive). In addition, the GI50 is 0.34 µM (active) in [15], 0.218 µM (active) in [16] and 6.67 µM (inactive) in assay [17].

For the molecule `O=C(Cc1ccc(F)cc1)NC1=C(Cl)C(=O)c2ccccc2C1=O`, the GI50 in [1] is 1.47 µM (inactive); in assay [2] it was 3.65 µM (inactive); in assay [3], 0.0916 µM (active); in [4], 1.54 µM (inactive); in assay [5], 3.52 µM (inactive); in assay [6], 3.16 µM (inactive). The GI50 in assay [7] was 2.77 µM (inactive); in assay [8], 1.67 µM (inactive); in [9] it was 2.75 µM (inactive); in assay [10] it was 2.06 µM (inactive); in assay [11], 1.92 µM (inactive); in assay [12], 1.05 µM (active). The GI50 is 4.05 µM (inactive) in assay [13]; 2.43 µM (inactive) in assay [14]; 3.38 µM (inactive) in assay [15]; 5.58 µM (inactive) in assay [16]; 2.24 µM (inactive) in assay [17].

Values taken from ChEMBL document CHEMBL1201862, “PubChem BioAssay data set” (2004).
